Reference: ChEMBL document CHEMBL6121067, “Mitophagy in Neurodegenerative Diseases: Mechanisms of Action and the Advances of Drug Discovery” (J Med Chem, 2025)
pEC50, pIC50: −log10 of the molar value. ≈ marks a conversion by molar mass, not a printed value.

Experiments:
[1] = target: T1, Ubiquitin carboxyl-terminal hydrolase 30 (Homo sapiens, UniProt Q70CQ3); assay: Inhibition of USP30 (unknown origin)
T1 sequence (Q70CQ3 whole entry): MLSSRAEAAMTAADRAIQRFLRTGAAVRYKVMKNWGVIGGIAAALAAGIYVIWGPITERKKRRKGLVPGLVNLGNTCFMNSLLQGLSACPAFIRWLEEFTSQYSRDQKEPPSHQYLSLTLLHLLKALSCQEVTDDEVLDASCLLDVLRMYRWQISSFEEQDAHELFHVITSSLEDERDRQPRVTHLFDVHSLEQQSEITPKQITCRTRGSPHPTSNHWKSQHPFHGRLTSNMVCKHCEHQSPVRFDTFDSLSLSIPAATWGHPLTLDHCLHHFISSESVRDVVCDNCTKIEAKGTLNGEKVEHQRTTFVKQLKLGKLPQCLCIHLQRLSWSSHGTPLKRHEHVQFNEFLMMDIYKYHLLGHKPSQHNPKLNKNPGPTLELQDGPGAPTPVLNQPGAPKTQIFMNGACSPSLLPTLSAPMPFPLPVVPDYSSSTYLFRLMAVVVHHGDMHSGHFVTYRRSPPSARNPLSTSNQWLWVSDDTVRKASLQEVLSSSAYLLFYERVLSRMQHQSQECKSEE

[2] = target: Serine/threonine-protein kinase PINK1, mitochondrial (Homo sapiens, UniProt Q9BXM7); assay: Activation of full length recombinant PINK1 (unknown origin) extracted from Escherichia coli BL21 (DE3) by UV absorbance based analysis
[3] = Solubility of compound at pH 6.8 incubated for 4 hrs by HPLC or LC-MS/MS analysis; type: physicochemical; settings: buffer

Chain of Serine/threonine-protein kinase PINK1, mitochondrial (Q9BXM7 whole entry): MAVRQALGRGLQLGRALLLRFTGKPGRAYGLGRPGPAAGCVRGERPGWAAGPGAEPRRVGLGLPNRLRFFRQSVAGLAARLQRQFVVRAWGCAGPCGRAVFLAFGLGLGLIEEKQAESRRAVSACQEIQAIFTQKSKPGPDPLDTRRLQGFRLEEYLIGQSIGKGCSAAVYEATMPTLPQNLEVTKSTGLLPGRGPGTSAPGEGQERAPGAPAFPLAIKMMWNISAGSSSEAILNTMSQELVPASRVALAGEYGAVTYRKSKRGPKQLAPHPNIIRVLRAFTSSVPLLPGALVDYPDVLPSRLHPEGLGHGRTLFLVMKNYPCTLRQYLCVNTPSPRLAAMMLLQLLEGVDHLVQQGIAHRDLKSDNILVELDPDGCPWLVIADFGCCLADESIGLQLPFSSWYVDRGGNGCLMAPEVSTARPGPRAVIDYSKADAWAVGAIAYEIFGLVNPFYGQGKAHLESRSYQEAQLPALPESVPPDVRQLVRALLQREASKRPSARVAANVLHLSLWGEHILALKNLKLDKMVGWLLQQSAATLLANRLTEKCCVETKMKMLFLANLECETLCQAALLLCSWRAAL

pIC50 [1]	pEC50 [2]	solubility at 4 h [3] [µg/mL]	Compound
7.82	–	–	COc1cc(C(=O)N[C@@H]2CCN(C#N)C2)ccc1-c1cnn(C)c1
7.82	–	–	N#CN1CC[C@@H](NC(=O)N2CC(c3ccn(-c4ccccc4)n3)C2)C1
7.82	–	–	N#CN1CC[C@H](CNC(=O)c2cc(-c3cccc(Cl)c3)no2)C1
8.82	–	–	N#CN1CC[C@@H](NC(=O)c2cc(-c3ccccc3Oc3ccccc3)n[nH]2)C1
5.07	–	–	COc1cc(-c2nc(-c3ccccc3)c(-c3ccccc3)n2C2CC2)ccc1OCC(=O)O

More lines, now with the values behind:

Compound	pIC50 [1]	pEC50 [2]	solubility at 4 h [3] [µg/mL]
CC(C)[C@H]1Cn2ncc(-c3ccc(C(=O)N4CCCc5ccccc54)cc3)c2CN1C(=O)Cc1ccccc1	–	5.54	3.6 (≈ 6.94 µM)
C[C@@H](C(=O)N1Cc2c(-c3ccc(C(=O)N4CCCc5ccccc54)cc3)cnn2C[C@@H]1C)c1ccccc1	–	5.82	1.5 (≈ 2.97 µM)
CCn1c(-c2ccc(OCC(=O)O)c(OC)c2)nc(-c2ccccc2)c1-c1ccccc1	5.29	–	–
CO[C@@H](C(=O)N1Cc2c(-c3ccc(C(=O)N4CCCc5ccccc54)cc3)cnn2C[C@@H]1C(C)C)c1ccccc1	–	7.40	3.8 (≈ 6.93 µM)
CC(=O)N1Cc2c(-c3ccc(C(=O)N4CCCc5ccccc54)cc3)cnn2C[C@@H]1C	–	4.84	–
CO[C@@H](C(=O)N1Cc2c(-c3ccc(C(=O)N4CCCc5ccccc54)cc3)cnn2C[C@@H]1C(C)C)c1cnn(C)c1	–	6.82	65 (≈ 118 µM)
